Legend:
[1] = test system: Human epidermoid carcinoma KB-8511 cells; experiment: KB-8511 human tumor xenograft model, loading/maintenance dosage regimens; assay type: in vivo, BALB/c nude mice
Method: 7,11-Dihydroxy-8,8,10,12,16-pentamethyl-3-[1-methyl-2-(2-methylsulfanyl-thiazol-4-yl)-vinyl]-4,17-dioxa-bicyclo[14.1.0]heptadecane-5,9-dione is dissolved in PEG300 and immediately diluted with saline (0.9% w/v NaCl) to the desired final concentration to be administered to mice as. The injected volume is 10 ml/kg i.v. Formulations are prepared immediately before use. Adriablastin/EÊ (Pharmacia and Upjohn) is purchased as a 2 mg/mL solution, and diluted with saline (0.9% NaCl) to prepare the 0.3 mg/mL solution used to treat animals. Taxol. (Bristol-Myers Squibb AG) is purchased as a 6 mg/ml solution, and diluted with saline to prepare the 1.5 mg/ml solution used to treat animals.
Human epidermoid carcinoma KB-8511 cells are obtained from Dr R. M. Baker, Roswell, Park Memorial Institute (Buffalo, N.Y., USA). Because of pgp170 overexpression, these cells are multi-drug resistant (Akiyama, et al 1985). KB-8511 cells are cultured as previously described.
The experimental details of the human tumor xenograft model has been described previously. A maximum of 10 female nude mice are kept under sterile conditions (type III cage, in an OHC zone) with free access to food and water. […] 7,11-Dihydroxy-8,8,10,12,16-pentamethyl-[1-methyl-2-(2-methylsulfanyl-thiazol-4-yl)-vinyl]-4,17-dioxa-bicyclo[14.1.0]heptadecane-5,9-dione is administered i.v. and tumor volumes and body weights are measured twice per week. Tumor volumes are determined by using callipers for measurement of longest (considered as Length) and shortest (considered as Diameter) dimensions of each tumors, and according to the formula Length×Diameter2×δ/6. Tumor growth and body weights are monitored twice weekly. When mentioned, antitumor activity is expressed as TIC % (mean increase of tumor volumes of treated animals divided by the mean increase of tumor volumes of control animals multiplied by 100) and/or as Tumor Regression (Reg %), calculated as ((mean tumor volume at the start of treatment minus mean tumor volume)/mean tumor volume at the start of treatment)×100. […]

[2] = Tolerability (body weight) in KB-8511 tumor-bearing mice; assay type: in vivo, BALB/c nude mice
Method: The experimental details of the human tumor xenograft model has been described previously. A maximum of 10 female nude mice are kept under sterile conditions (type III cage, in an OHC zone) with free access to food and water. KB-8511 tumors are established by subcutaneous injection of cells (2×10^6 cells in 100 μL PBS). The resulting tumors (at a size of 700 to 1000 mm3) are passaged in vivo at least 3 times prior to chemotherapy experimentation, and tumor-bearing mice are treated with Adriablastin/EÊ at 3 mg/kg (10 mL/kg) every week, in order to keep high levels of pgp170 expression. Tumor fragments of about 25 mg are implanted subcutaneously into the left flank of the animals with a 13 gauge trocar needle under Forene/EÊ (Abbott, Switzerland) anesthesia. Unless otherwise stated, treatments are always initiated when the mean tumor volume in each group reached 100 mm3. […] 7,11-Dihydroxy-8,8,10,12,16-pentamethyl-[1-methyl-2-(2-methylsulfanyl-thiazol-4-yl)-vinyl]-4,17-dioxa-bicyclo[14.1.0]heptadecane-5,9-dione is administered i.v. and tumor volumes and body weights are measured twice per week. Tumor volumes are determined by using callipers for measurement of longest (considered as Length) and shortest (considered as Diameter) dimensions of each tumors, and according to the formula Length×Diameter2×δ/6. Tumor growth and body weights are monitored twice weekly. […]

[3] = parameters: species or system BALB/c nude mice; conditions: mouse, in vivo
Method: BALB/c nude mice bearing KB-8511 xenograft tumors (initial volume of 250 mm3) were treated using various loading and maintenance dosage regimens to probe the validity of such regimens and to validate the predictions obtained with the PK-PD model. […] The kinetics of body weight loss on some of the tested loading and maintenance dosage regimens (L/MDR) were more benign (i.e. less fluctuating) than those observed on the corresponding fixed dosage regimens (FDR). […] It is concluded that the loading and maintenance dosing concept, by taking into account the very slow elimination rate of NVP-ABJ879, appears to represent an alternative dosing schemeunder which this drug can be dosed weekly.

[4] = cited from earlier work
[5] = test system: colorectal, renal, prostatic, pancreatic, gastric and brain cancers; conditions: cited from earlier work

SMILES	tumor relapse ([1]; 1.5/0.5 mg/kg dosing)	antitumor activity where tolerability improved (dose optimization) ([1]; initial tumor volume 100 mm3, tolerability assessed on body weight change)	antitumor activity ([1]; loading and maintenance 1.5 mg/kg-0.5 mg/kg or 2.1 mg/kg-0.7 mg/kg, weekly i.v., initial tumor volume 250 mm3)	tolerability (stabilization of the body weight loss) ([2]; loading and maintenance 1.5 mg/kg-0.5 mg/kg or 2.1 mg/kg-0.7 mg/kg, weekly i.v.)	kinetics of body weight loss ([2]; some loading and maintenance dosage regimens (L/MDR) versus corresponding fixed dosage regimens (FDR))	elimination rate [3]	solubility in water [4]	clinical activity as a single agent [5]
CSc1nc(C=C(C)C2CC3OC3(C)CCCC(C)C(O)C(C)C(=O)C(C)(C)C(O)CC(=O)O2)cs1 (centres unmarked) [7,11-Dihydroxy-8,8,10,12,16-pentamethyl-3-[1-methyl-2-(2-methylsulfanyl-thiazol-4-yl)-vinyl]-4,17-dioxa-bicyclo[14.1.0]heptadecane-5,9-dione]	tumor relapse was observed in some of the animals	reduced antitumor activity	strong antitumor activity	enhanced tolerability	more benign	very slow	–	–
CC(=O)O[C@H]1C(=O)[C@@]2(C)[C@H]([C@H](OC(=O)c3ccccc3)[C@]3(O)C[C@H](OC(=O)[C@H](O)[C@@H](NC(=O)c4ccccc4)c4ccccc4)C(C)=C1C3(C)C)[C@]1(OC(C)=O)CO[C@@H]1C[C@@H]2O [TAXOL®, paclitaxel]	–	–	–	–	–	–	extremely low	poorly active clinically
